Data as given in PubChem BioAssay AID1845196 (Molecular Pharmacology Branch, DTP, NCI, 2023).

Tested on: 292921-168-R tumor spheroid viability
Experiment: Anticancer human tumor 292921-168-R patient-derived pancreatic carcinoma cell line growth inhibition
Settings: spheroids with HUVEC and MSC; for IC50: curve of first compound; for viability, T/C: stronger effect = lower value
Method in brief: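 Complex spheroids of malignant cells with endothelial cells and mesenchymal stem cells; agents alone or combined, from near clinical Cmax (or 10 microM if unknown) down in half-log steps, 0.25% DMSO final.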
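Note: spheroids exposed to compounds for 7 days.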

With `Cc1cc(C)c(CNC(=O)c2cc(-c3ccc(CN4CCOCC4)cc3)cc3c2cnn3C2CCCC2)c(=O)[nH]1` + COc1cc2c(cc1O)CCNC21CSC2c3c(OC(C)=O)c(C)c4c(c3C(COC1=O)N1C(O)C3Cc5cc(C)c(OC)c(O)c5C(C21)N3C)OCO4 the IC50 (second compound 30 pM) was over 10 µM, the IC50 (second compound 94.9 pM) was over 10 µM and the IC50 (second compound 0.0003 µM) was 0.629 µM. For the same compound, the IC50 (second compound 0.000949 µM) was under 0.0316 µM, the IC50 (second compound 0.003 µM) was under 0.0316 µM and the viability, T/C (second compound 30 pM, first compound 0.0316 µM) was 99.1%. For the same compound, the viability, T/C (second compound 30 pM, first compound 0.1 µM) was 113%, the viability, T/C (second compound 30 pM, first compound 0.316 µM) was 110% and the viability, T/C (second compound 30 pM, first compound 1 µM) was 109%. It also gave a viability, T/C (second compound 30 pM, first compound 3.16 µM) of 101%, a viability, T/C (second compound 30 pM, first compound 10 µM) of 84.2% and a viability, T/C (second compound 94.9 pM, first compound 0.0316 µM) of 97.7%. For the same compound, the viability, T/C (second compound 94.9 pM, first compound 0.1 µM) was 107%, the viability, T/C (second compound 94.9 pM, first compound 0.316 µM) was 108% and the viability, T/C (second compound 94.9 pM, first compound 1 µM) was 102%. The viability, T/C (second compound 94.9 pM, first compound 3.16 µM) was 101%, the viability, T/C (second compound 94.9 pM, first compound 10 µM) was 78% and the viability, T/C (second compound 0.0003 µM, first compound 0.0316 µM) was 50%. For the same compound, the viability, T/C (second compound 0.0003 µM, first compound 0.1 µM) was 55.4%, the viability, T/C (second compound 0.0003 µM, first compound 0.316 µM) was 47.4% and the viability, T/C (second compound 0.0003 µM, first compound 1 µM) was 49%. It also gave a viability, T/C (second compound 0.0003 µM, first compound 3.16 µM) of 48%, a viability, T/C (second compound 0.0003 µM, first compound 10 µM) of 40.5% and a viability, T/C (second compound 0.000949 µM, first compound 0.0316 µM) of 5.06%. It also gave a viability, T/C (second compound 0.000949 µM, first compound 0.1 µM) of 5.13%, a viability, T/C (second compound 0.000949 µM, first compound 0.316 µM) of 5.06% and a viability, T/C (second compound 0.000949 µM, first compound 1 µM) of 3.5%. For the same compound, the viability, T/C (second compound 0.000949 µM, first compound 3.16 µM) was 3.21%, the viability, T/C (second compound 0.000949 µM, first compound 10 µM) was 4.34% and the viability, T/C (second compound 0.003 µM, first compound 0.0316 µM) was 0.15%. The viability, T/C (second compound 0.003 µM, first compound 0.1 µM) was 0.18%, the viability, T/C (second compound 0.003 µM, first compound 0.316 µM) was 0.17% and the viability, T/C (second compound 0.003 µM, first compound 1 µM) was 0.15%. It also gave a viability, T/C (second compound 0.003 µM, first compound 3.16 µM) of 0.17% and a viability, T/C (second compound 0.003 µM, first compound 10 µM) of 0.23%.
